Results reported in patent US8748412B2, “Phenylalanine derivatives and their use as non-peptide GLP-1 receptor modulators” (Argusina Bioscience Inc., priority 2011, dated 2014).

Each compound was assayed against T1, human GLP1R (Homo sapiens, UniProt P43220) (assay: Human GLP-1 receptor transfected cell assay (MRE/CRE-luciferase reporter gene, agonist activity)). Settings: 6 h; conc. 10 μM; percentage of the activity of the control; read-out: Agonist Activity.
T1 construct: expressed in transfected cells; host or cells: CHO cells (ATCC), transient transfection with pCMV-human GLP1R
Assay type: cell-based
In short: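 CHO cells transiently co-transfected with human GLP1R and MRE/CRE-driven luciferase reporter plasmids. Compound or GLP-1 (7-36 amide) standard dilution series added for 6 h at 37 °C, 5% CO2. Agonist activity read as Bright-Glo luciferase luminescence.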

T1 sequence (P43220 24-463): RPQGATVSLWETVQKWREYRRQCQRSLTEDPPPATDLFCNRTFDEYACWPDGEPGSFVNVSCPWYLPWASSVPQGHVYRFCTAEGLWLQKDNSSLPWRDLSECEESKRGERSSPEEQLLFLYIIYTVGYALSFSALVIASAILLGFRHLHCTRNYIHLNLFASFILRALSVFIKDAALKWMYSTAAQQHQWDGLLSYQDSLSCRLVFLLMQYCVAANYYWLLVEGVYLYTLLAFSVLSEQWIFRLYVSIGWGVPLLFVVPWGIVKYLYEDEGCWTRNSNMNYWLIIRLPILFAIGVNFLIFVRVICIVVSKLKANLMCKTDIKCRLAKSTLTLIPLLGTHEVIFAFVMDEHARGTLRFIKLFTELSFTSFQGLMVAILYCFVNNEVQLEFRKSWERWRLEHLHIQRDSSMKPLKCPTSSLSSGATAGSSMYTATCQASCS

Activation at 10 µM, > 60%:
CC(C)(C)OC(=O)Nc1ccc(-c2nc(-c3ccc(CC(NC(=O)c4ccc(-c5ccc([N+](=O)[O-])cc5)o4)C(=O)O)cc3F)no2)cc1 (stereo not shown) [Compound 11G]
CC(C)(C)OC(=O)Nc1ccc(-c2nc(-c3ccc(CC(NS(=O)(=O)c4cccc5cccnc45)C(=O)O)cc3F)no2)cc1 (stereo not shown) [Compound 11J]
CC(C)(C)OC(=O)Nc1ccc(-c2nc(-c3ccc(CC(NS(=O)(=O)c4ccc(-c5ccccc5)cc4)C(=O)O)cc3F)no2)cc1 (stereo not shown) [Compound 11K]
CC(C)(C)OC(=O)Nc1ccc(-c2nc(-c3ccc(CC(NS(=O)(=O)c4ccc(C(F)(F)F)cc4[N+](=O)[O-])C(=O)O)cc3F)no2)cc1 (stereo not shown) [Compound 11M]
Cc1ccc(-c2cccc(C(=O)NC(Cc3ccc(-c4noc(-c5ccc(NC(=O)OC(C)(C)C)cc5)n4)c(F)c3)C(=O)O)c2)cc1 (stereo not shown) [Compound 11N]
CC(C)(C)OC(=O)Nc1ccc(-c2nc(-c3ccc(CC(NC(=O)c4ccc(-c5ccc(C(F)(F)F)cc5)o4)C(=O)O)cc3F)no2)cc1 (stereo not shown) [Compound 11O]
Cc1ccc(CN2CCN(C(=O)NC(Cc3ccc(-c4noc(-c5ccc(NC(=O)OC(C)(C)C)cc5)n4)c(F)c3)C(=O)O)CC2)cc1 (stereo not shown) [Compound 11Q]
CC(C)(C)OC(=O)Nc1ccc(-c2nc(-c3ccc(CC(NC(=O)C4CCN(C(=O)OC(C)(C)C)CC4)C(=O)O)cc3F)no2)cc1 (stereo not shown) [Compound 11R]
CC(C)(C)OC(=O)Nc1ccc(-c2nc(-c3ccc(CC(NC(=O)Nc4cc(-c5ccccc5)n[nH]4)C(=O)O)cc3F)no2)cc1 (stereo not shown) [Compound 11S]
CC(C)(C)OC(=O)Nc1ccc(-c2nc(-c3ccc(CC(NC(=O)c4cn(-c5ccc(C(C)(C)C)cc5)nn4)C(=O)O)cc3F)no2)cc1 (stereo not shown) [Compound 11V]

Activation at 10 µM, 40 to 60%:
Cc1ccc(S(=O)(=O)NC(Cc2ccc(-c3noc(-c4ccc(NC(=O)OC(C)(C)C)cc4)n3)c(F)c2)C(=O)O)cc1Cl (stereo not shown) [Compound 11F]
CC(C)(C)OC(=O)Nc1ccc(-c2nc(-c3ccc(CC(NS(=O)(=O)c4ccc([N+](=O)[O-])cc4)C(=O)O)cc3F)no2)cc1 (stereo not shown) [Compound 11H]
Cc1cc(C)c(S(=O)(=O)NC(Cc2ccc(-c3noc(-c4ccc(NC(=O)OC(C)(C)C)cc4)n3)c(F)c2)C(=O)O)c(C)c1 (stereo not shown) [Compound 11I]
CC(C)(C)OC(=O)Nc1ccc(-c2nc(-c3ccc(CC(NC(=O)CN4CCN(C(=O)OC(C)(C)C)CC4)C(=O)O)cc3F)no2)cc1 (stereo not shown) [Compound 11T]

Activation at 10 µM, 20 to 40%:
CC(C)c1ccc(S(=O)(=O)NC(Cc2ccc(-c3noc(-c4ccc(NC(=O)OC(C)(C)C)cc4)n3)c(F)c2)C(=O)O)cc1 (stereo not shown) [Compound 11C]
Cc1ccc(CNC(=O)C(Cc2ccc(OC(=O)c3ccc(NC(=O)OC(C)(C)C)cc3)c(F)c2)c2nnn[nH]2)cc1 (stereo not shown) [Compound 11D]
CC(C)(C)OC(=O)Nc1ccc(-c2nc(-c3ccc(CC(NS(=O)(=O)c4ccc(OC(F)(F)F)cc4)C(=O)O)cc3F)no2)cc1 (stereo not shown) [Compound 11L]
CC(C)(C)OC(=O)Nc1ccc(-c2nc(-c3ccc(CC(NC(=O)c4ccc(-c5ccc(F)cc5)s4)C(=O)O)cc3F)no2)cc1 (stereo not shown) [Compound 11P]
CN1CCN(c2ccc(C(=O)NC(Cc3ccc(-c4noc(-c5ccc(NC(=O)OC(C)(C)C)cc5)n4)c(F)c3)C(=O)O)o2)CC1 (stereo not shown) [Compound 11U]

Same assay, conditions: 6 h; concentration 1 μM; read-out: Activity (agonist), percentage of the activity of the control

Activation at 1 µM, > 60%:
Cc1ccc(-c2ccc(C(=O)N[C@H](Cc3ccc(-c4noc(-c5ccc(NC(=O)OC(C)(C)C)cc5)n4)c(C)c3)C(=O)O)o2)cc1 [Compound 6R]
Cc1ccc(-c2ccc(C(=O)N[C@H](Cc3cc(Br)cc(-c4noc(-c5ccc(NC(=O)OC(C)(C)C)cc5)n4)c3)C(=O)O)o2)cc1 [Compound 6Y]
Cc1ccc(-c2ccc(C(=O)NC(Cc3cc(F)cc(C#Cc4ccc(NC(=O)OC(C)(C)C)cc4)c3)C(=O)O)o2)cc1 (stereo not shown) [Compound 7E]
Cc1cc(-c2ccc(C(=O)N[C@H](Cc3ccc(-c4noc(-c5ccc(NC(=O)OC(C)(C)C)cc5)n4)c(F)c3)C(=O)O)o2)ccc1F [Compound 9E]
Cc1cc(-c2ccc(C(=O)N[C@@H](Cc3ccc(-c4noc(-c5ccc(NC(=O)OC(C)(C)C)cc5)n4)c(F)c3)C(=O)O)o2)ccc1F [Compound 10E]

Activation at 1 µM, 40 to 60%:
CC(C)(C)OC(=O)Nc1ccc(-c2nc(-c3ccc(C[C@@H](NC(=O)c4ccc(-c5ccc(C6CC6)cc5)o4)C(=O)O)cc3F)no2)cc1 [Compound 6G]
CC(C)(C)OC(=O)Nc1ccc(-c2nc(-c3ccc(C[C@@H](NC(=O)c4cccc(-c5ccccc5F)c4)C(=O)O)cc3F)no2)cc1 [Compound 6P]
Cc1ccc(-c2ccc(C(=O)N[C@H](Cc3ccc(-c4noc(-c5ccc(NC(=O)OC(C)(C)C)cc5)n4)cn3)C(=O)O)o2)cc1 [Compound 6Q]
Cc1ccc(-c2ccc(C(=O)N[C@H](Cc3ccc(C)c(-c4noc(-c5ccc(NC(=O)OC(C)(C)C)cc5)n4)c3)C(=O)O)o2)cc1 [Compound 6Z]

Activation at 1 µM, 20 to 40%:
Cc1ccc(-c2cccc(C(=O)N[C@H](Cc3ccc(-c4noc(-c5ccc(NC(=O)OC(C)(C)C)cc5)n4)c(F)c3)C(=O)O)c2)cc1F [Compound 6L]
CC(C)Oc1ccc(-c2ccc(C(=O)N[C@H](Cc3ccc(-c4noc(-c5ccc(NC(=O)OC(C)(C)C)cc5)n4)c(F)c3)C(=O)O)o2)cc1F [Compound 6O]
Cc1cc(C[C@@H](NC(=O)c2ccc(-c3ccc(Cl)cc3F)o2)C(=O)O)ccc1-c1noc(-c2ccc(NC(=O)OC(C)(C)C)cc2)n1 [Compound 6S]
CC(C)(C)OC(=O)Nc1ccc(-c2nc(-c3ccc(C[C@@H](NC(=O)c4cccc(C#CC5CC5)c4)C(=O)O)cc3F)no2)cc1 [Compound 6T]
CC(C)c1ccc(-c2ccc(C(=O)N[C@H](Cc3ccc(F)c(-c4noc(-c5ccc(NC(=O)OC(C)(C)C)cc5)n4)c3)C(=O)O)o2)cc1 [Compound 6V]

Same assay, conditions: 6 h; concentration 3 μM; read-out: Activity (agonist), percentage of the activity of the control

Activation at 3 µM, > 60%:
Cc1ccc(-c2cccc(C(=O)N[C@@H](Cc3ccc(-c4noc(-c5ccc(NC(=O)OC(C)(C)C)cc5)n4)c(F)c3)C(=O)O)c2)cc1 [Compound 8E]

Activation at 3 µM, 20 to 40%:
CC(C)c1ccc(-c2cccc(C(=O)N[C@H](Cc3ccc(-c4noc(-c5ccc(NC(=O)OC(C)(C)C)cc5)n4)c(F)c3)C(=O)O)c2)cc1 [Compound 6D]
Cc1ccc(-c2cccc(C(=O)N[C@H](Cc3ccc(-c4noc(-c5ccc(NC(=O)OC(C)(C)C)cc5)n4)c(F)c3)C(=O)O)c2)o1 [Compound 6I]
COc1ccc(C[C@@H](NC(=O)c2ccc(-c3ccc(C)cc3)o2)C(=O)O)cc1-c1noc(-c2ccc(NC(=O)OC(C)(C)C)cc2)n1 [Compound 6W]

Activation at 3 µM, 40 to 60%:
CC(C)Oc1ccc(-c2ccc(C(=O)N[C@H](Cc3ccc(-c4noc(-c5ccc(NC(=O)OC(C)(C)C)cc5)n4)c(F)c3)C(=O)O)o2)cc1 [Compound 6N]
Cc1csc(-c2cccc(C(=O)N[C@H](Cc3ccc(-c4noc(-c5ccc(NC(=O)OC(C)(C)C)cc5)n4)c(F)c3)C(=O)O)c2)c1 [Compound 6U]
Cc1ccc(-c2ccc(C(=O)N[C@H](Cc3cc(F)cc(-c4noc(-c5ccc(NC(=O)OC(C)(C)C)cc5)n4)c3)C(=O)O)o2)cc1 [Compound 6X]

Same assay, conditions: 6 h; concentration 3.16 μM; read-out: Activity (agonist), percentage of the activity of the control

Activation at 3.16 µM, 40 to 60%:
CC(C)c1ccc(-c2ccc(C(=O)N[C@H](Cc3ccc(-c4noc(-c5ccc(NC(=O)OC(C)(C)C)cc5)n4)c(F)c3)C(=O)O)o2)cc1 [Compound 6B]

Activation at 3.16 µM, > 60%:
Cc1ccc(-c2ccc(C(=O)NC(Cc3ccc(F)c(C#Cc4ccc(NC(=O)OC(C)(C)C)cc4)c3)C(=O)O)o2)cc1 (stereo not shown) [Compound 6E]
Cc1ccc(-c2cccc(C(=O)N[C@H](Cc3ccc(-c4noc(-c5ccc(NC(=O)OC(C)(C)C)cc5)n4)c(F)c3)C(=O)O)c2)cc1Cl [Compound 6H]
Cc1ccc(-c2ccc(C(=O)N[C@H](Cc3ccc(-c4noc(-c5ccc(NC(=O)OC(C)(C)C)cc5)n4)c(F)c3)C(=O)O)o2)cc1 [Compound 11E]

Same assay, conditions: 6 h; concentration 10 μM; read-out: Activity (agonist), percentage of the activity of the control

Activation at 10 µM, 20 to 40%:
COc1ccc(C#CC(=O)N[C@H](Cc2ccc(-c3noc(-c4ccc(NC(=O)OC(C)(C)C)cc4)n3)c(F)c2)C(=O)O)cc1 [Compound 6M]

Activation at 10 µM, > 60%:
Cc1ccc(S(=O)(=O)N2Cc3cc(OC(=O)c4ccc(NC(=O)OC(C)(C)C)cc4)ccc3CC2C(=O)O)cc1F (stereo not shown) [Compound 5Y]
Cc1ccc(-c2ccc(C(=O)NC3(C(=O)O)Cc4ccc(-c5noc(-c6ccc(NC(=O)OC(C)(C)C)cc6)n5)cc4C3)o2)cc1 (stereo not shown) [Compound 5Z]
CC(C)(C)OC(=O)Nc1ccc(-c2nc(-c3ccc(C[C@@H](NC(=O)c4cccc(-c5ccc(Cl)cc5)c4)C(=O)O)cc3F)no2)cc1 [Compound 6A]
CC(C)(C)OC(=O)Nc1ccc(-c2nc(-c3ccc(C[C@@H](NC(=O)c4cccc(-c5ccc(Cl)cc5F)c4)C(=O)O)cc3F)no2)cc1 [Compound 6C]
CC(C)(C)OC(=O)Nc1ccc(-c2nc(-c3ccc(C[C@@H](NC(=O)c4cccc(-c5ccc(Cl)c(F)c5)c4)C(=O)O)cc3F)no2)cc1 [Compound 6F]
Cc1ccc(-c2cccc(C(=O)N[C@H](Cc3ccc(-c4noc(-c5ccc(NC(=O)OC(C)(C)C)cc5)n4)c(F)c3)C(=O)O)c2)s1 [Compound 6J]
CC(C)Oc1ccc(-c2cccc(C(=O)N[C@H](Cc3ccc(-c4noc(-c5ccc(NC(=O)OC(C)(C)C)cc5)n4)c(F)c3)C(=O)O)c2)cc1 [Compound 6K]
